According to US12692262B2, “Substituted ureas as orexin receptor agonists” (Merck Sharp & Dohme LLC, priority 2020, dated 2026):

Target: T1, human OX2R (Homo sapiens, UniProt O43614)
T1 construct: expressed in transfected cells; host or cells: CHO (Chinese hamster ovary) cells grown under G418 selection
T1 sequence (O43614 1-444): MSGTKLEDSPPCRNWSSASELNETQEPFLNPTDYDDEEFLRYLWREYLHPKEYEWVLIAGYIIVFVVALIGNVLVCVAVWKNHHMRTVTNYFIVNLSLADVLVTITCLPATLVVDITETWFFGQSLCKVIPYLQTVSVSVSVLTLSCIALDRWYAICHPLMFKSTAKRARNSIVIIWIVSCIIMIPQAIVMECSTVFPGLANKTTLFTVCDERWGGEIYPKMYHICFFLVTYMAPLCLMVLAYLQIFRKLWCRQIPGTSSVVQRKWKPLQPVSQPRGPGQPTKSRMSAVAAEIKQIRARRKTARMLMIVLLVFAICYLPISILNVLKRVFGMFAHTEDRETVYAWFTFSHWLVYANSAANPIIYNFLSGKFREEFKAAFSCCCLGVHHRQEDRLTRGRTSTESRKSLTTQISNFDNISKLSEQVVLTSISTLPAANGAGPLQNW
Experiment: IPOne (IP-1 accumulation) assay in CHO cells expressing human OX2R
Assay type: cell-based
Settings: for EC50: CHO cells expressing human OX2R, IP-One assay, 2 h incubation, four parameter logistic fit, read-out: OX2R Potency, EC50; for % of maximum agonist effect (relative to Orexin A): percent effect vs mean max effect of a reference compound at 1 uM (100% activity vs Orexin A), human OX2R
Text: The utility of the compounds in accordance with the present invention as orexin receptor OX1R and/or OX2R agonists may be readily determined without undue experimentation by methodology well known in the art. Both the OX1R and/or OX2R G-coupled protein receptors (GPCRs) couple through the Gαq signaling pathway, which ultimately promotes calcium mobilization via inositol triphosphate (IP3) production. […] The utility of the compounds in accordance with the present invention as orexin receptor OX1R and/or OX2R agonists may be determined utilizing this assay.
In a typical experiment, the OX1 and OX2 receptor agonist activity is determined in accordance with the following general experimental method. Chinese hamster ovary (CHO) cells expressing human OX1R and/or the human OX2R were grown in Iscove's modified DMEM containing glutaMAX™, 1% G418, 100 U/mL penicillin, 100 μg/mL streptomycin and 10% heat-inactivated qualified fetal bovine serum (FBS). […] During this incubation, IP-one detection reagents were prepared (38:1:1 lysis buffer:D2:AB-cryptate reagents).
For each compound, data were fit to a four parameter logistic fit (ActivityBase software) and the EC50 was reported as the inflection point of the resulting curve. […] The intrinsic orexin receptor agonist activity of a compound which may be used in the present invention may be determined by these assays.

SMILES | EC50 | % of maximum agonist effect (relative to Orexin A)
CCN(C(=O)NC1CCC1C(F)(F)F)[C@@H](c1cc(-c2cn3ccnc3c(OC)n2)c(OC)cn1)C(F)(F)F (stereo partly drawn) [Example 2-9, 1-ethyl-1-((S)-2,2,2-trifluoro-1-(5-methoxy-4-(8-methoxyimidazo[1,2-a]pyrazin-6-yl)pyridin-2-yl)ethyl)-3-(2-(trifluoromethyl)cyclobutyl)-urea] | 20.3 nM | 100.0%
CCC(NC(=O)N(CC)[C@@H](c1cc(-c2cn3ccnc3c(OC)n2)c(OC)cn1)C(F)(F)F)C(F)F (stereo partly drawn) [Example 2-10, 3-(1,1-difluorobutan-2-yl)-1-ethyl-1-((S)-2,2,2-trifluoro-1-(5-methoxy-4-(8-methoxyimidazo[1,2-a]pyrazin-6-yl)pyridin-2-yl)ethyl)urea] | 22.5 nM | 98.5%
CCN(C(=O)NCC(C)C(F)(F)F)[C@@H](c1cc(-c2cn3ccnc3c(OC)n2)c(OC)cn1)C(F)(F)F (stereo partly drawn) [Example 2-11, 1-ethyl-1-((S)-2,2,2-trifluoro-1-(5-methoxy-4-(8-methoxyimidazo[1,2-a]pyrazin-6-yl)pyridin-2-yl)ethyl)-3-(3,3,3-trifluoro-2-methylpropyl)urea] | 30.3 nM | 97.6%
CCN(C(=O)N[C@@H](CCC(F)(F)F)C(F)(F)F)C(c1cnc(SC)c(-c2cc(OC)n3nccc3c2)c1)C(F)(F)F (stereo partly drawn) [Example 2-15, 1-ethyl-3-((S)-1,1,1,5,5,5-hexafluoropentan-2-yl)-1-(2,2,2-trifluoro-1-(5-(7-methoxypyrazolo[1,5-a]pyridin-5-yl)-6-(methylthio)pyridin-3-yl)ethyl)urea] | 24 nM | 98.4%
CCN(C(=O)N[C@@H](CCC(F)(F)F)C(F)(F)F)C(c1cc(-c2cn3cc(C)nc3c(OC)n2)c(OC)cn1)C1CC1 (stereo partly drawn) [Example 2-16, 1-(cyclopropyl(5-methoxy-4-(8-methoxy-2-methylimidazo[1,2-a]pyrazin-6-yl)pyridin-2-yl)methyl)-1-ethyl-3-((S)-1,1,1,5,5,5-hexafluoropentan-2-yl)urea] | 54.5 nM | 101.1%
CCN(C(=O)N[C@@H](COC1CC1)C(F)(F)F)[C@@H](c1cc(-c2cn3cc(C)nc3c(OC)n2)c(OC)cn1)C(F)(F)F [Example 2-18, 3-((S)-3-cyclopropoxy-1,1,1-trifluoropropan-2-yl)-1-ethyl-1-((S)-2,2,2-trifluoro-1-(5-methoxy-4-(8-methoxy-2-methylimidazo[1,2-a]pyrazin-6-yl)pyridin-2-yl)ethyl)urea] | 29.9 nM | 99.6%
CC[C@H](CCC(F)(F)F)NC(=O)N(CC(F)F)C(c1cc(-c2cn3ncnc3c(OC)n2)c(OC)cn1)C(F)(F)F (stereo partly drawn) [Example 2-20, 1-(2,2-difluoroethyl)-1-(2,2,2-trifluoro-1-(5-methoxy-4-(8-methoxy-[1,2,4]triazolo[1,5-a]pyrazin-6-yl)pyridin-2-yl)ethyl)-3-((R)-6,6,6-trifluorohexan-3-yl)urea] | 341 nM | 99.7%
CCN(C(=O)NC(C)(C)C#N)[C@H](C)c1cccc(-c2cn3ccnc3c(OC)n2)c1 [Example 2-25, (R)-3-(2-cyanopropan-2-yl)-1-ethyl-1-(1-(3-(8-methoxyimidazo[1,2-a]pyrazin-6-yl)phenyl)ethyl)urea] | 360 nM | 98.0%
CCN(C(=O)NC(C)C)[C@@H](c1cc(-c2cn3ccnc3c(OC)n2)c(OC)cn1)C(F)(F)F [Example 2-29, (S)-1-ethyl-3-isopropyl-1-(2,2,2-trifluoro-1-(5-methoxy-4-(8-methoxyimidazo[1,2-a]pyrazin-6-yl)pyridin-2-yl)ethyl)urea] | 23.8 nM | 96.0%

Molecules with a lower EC50, results first:

EC50 | % of maximum agonist effect (relative to Orexin A) | SMILES
13.3 nM | 100.0% | CC[C@H](NC(=O)N(CC)C(c1cc(-c2cn3ccnc3c(OC)n2)c(OC)cn1)C(F)(F)F)C(F)(F)F (stereo partly drawn) [Example 2-8, 1-ethyl-1-(2,2,2-trifluoro-1-(5-methoxy-4-(8-methoxyimidazo[1,2-a]pyrazin-6-yl)pyridin-2-yl)ethyl)-3-((S)-1,1,1-trifluorobutan-2-yl)urea]
2.1 nM | 99.9% | CCN(C(=O)N[C@@H](CCC(F)(F)F)C(F)(F)F)C(c1cc(-c2cn3ccnc3c(OC)n2)c2occc2n1)C(F)(F)F (stereo partly drawn) [Example 2-13, 1-ethyl-3-((S)-1,1,1,5,5,5-hexafluoropentan-2-yl)-1-(2,2,2-trifluoro-1-(7-(8-methoxyimidazo[1,2-a]pyrazin-6-yl)furo[3,2-b]pyridin-5-yl)ethyl)urea]
8.7 nM | 100.1% | CCN(C(=O)N[C@@H](CCC(F)(F)F)C(F)(F)F)C(c1cc(-c2cn3ccnc3c(OC)n2)c2nccn2c1)C(F)(F)F (stereo partly drawn) [Example 2-14, 1-ethyl-3-((S)-1,1,1,5,5,5-hexafluoropentan-2-yl)-1-(2,2,2-trifluoro-1-(8-(8-methoxyimidazo[1,2-a]pyrazin-6-yl)imidazo[1,2-a]pyridin-6-yl)ethyl)urea]
3.2 nM | 101.7% | CCN(C(=O)N[C@@H](CCC(F)(F)F)C(F)(F)F)C(c1cc(-c2cn3cc(C)nc3c(OC)n2)c(OC)cn1)C(F)F (stereo partly drawn) [Example 2-17, 1-(2,2-difluoro-1-(5-methoxy-4-(8-methoxy-2-methylimidazo[1,2-a]pyrazin-6-yl)pyridin-2-yl)ethyl)-1-ethyl-3-((S)-1,1,1,5,5,5-hexafluoropentan-2-yl)urea]
5.7 nM | 102.0% | COc1cnc([C@H](N(C(=O)N[C@@H](CCC(F)(F)F)C(F)(F)F)C2CC2)C(F)(F)F)cc1-c1cn2cc(C)nc2c(OC)n1 [Example 2-19, 1-cyclopropyl-3-((S)-1,1,1,5,5,5-hexafluoropentan-2-yl)-1-(2,2,2-trifluoro-1-(5-methoxy-4-(8-methoxy-2-methylimidazo[1,2-a]pyrazin-6-yl)pyridin-2-yl)ethyl)urea]
0.8 nM | 99.6% | CC[C@H](CCC(F)(F)F)NC(=O)N(CC)[C@@H](c1cc(-c2cn3ccnc3c(OC)n2)c(OC)cn1)C(F)(F)F [Example 2-21, 1-ethyl-1-((S)-2,2,2-trifluoro-1-(5-methoxy-4-(8-methoxyimidazo[1,2-a]pyrazin-6-yl)pyridin-2-yl)ethyl)-3-((R)-6,6,6-trifluorohexan-3-yl)urea]
2.8 nM | 101.5% | CCN(C(=O)N[C@@H](CCC(F)(F)F)C(F)(F)F)[C@@H](c1cccc(-c2cn3ccnc3c(OC)n2)c1)C(F)(F)F [Example 2-22, N-ethyl-N′-[(2S)-1,1,1,5,5,5-hexafluoropentan-2-yl]-N-{2,2,2-trifluoro-1-[3-(8-methoxyimidazo[1,2-a]pyrazin-6-yl)phenyl]ethyl}urea]
2.7 nM | 100.8% | CCN(C(=O)N[C@@H](CCC(F)(F)F)C(F)(F)F)[C@@H](c1ccc(OC)c(-c2ccc3nccn3c2)c1)C(F)(F)F [Example 2-23, 1-ethyl-3-((S)-1,1,1,5,5,5-hexafluoropentan-2-yl)-1-((S)-2,2,2-trifluoro-1-(3-(imidazo[1,2-a]pyridin-6-yl)-4-methoxyphenyl)ethyl)urea]
8.6 nM | 100.5% | CCN(C(=O)NC(C)c1nc(C)no1)[C@@H](c1cc(-c2cn3ccnc3c(OC)n2)c(OC)cn1)C(F)(F)F (stereo partly drawn) [Example 2-26, 1-ethyl-3-(1-(3-methyl-1,2,4-oxadiazol-5-yl)ethyl)-1-((S)-2,2,2-trifluoro-1-(5-methoxy-4-(8-methoxyimidazo[1,2-a]pyrazin-6-yl)pyridin-2-yl)ethyl)urea]
9.4 nM | 101.1% | CCN(C(=O)N[C@@H]1C[C@@]1(C)C(F)(F)F)[C@@H](c1cc(-c2cn3ccnc3c(OC)n2)c(OC)cn1)C(F)(F)F [Example 2-27, 1-ethyl-3-((1R,2R)-2-methyl-2-(trifluoromethyl)-cyclopropyl)-1-((S)-2,2,2-trifluoro-1-(5-methoxy-4-(8-methoxyimidazo[1,2-a]pyrazin-6-yl)pyridin-2-yl)ethyl)urea]
16.1 nM | 99.1% | CCN(C(=O)N[C@@H](C(C)(C)C)C(F)(F)F)[C@@H](c1cc(-c2cn3ccnc3c(OC)n2)c(OC)cn1)C(F)(F)F [Example 2-28, 1-ethyl-1-((S)-2,2,2-trifluoro-1-(5-methoxy-4-(8-methoxyimidazo[1,2-a]pyrazin-6-yl)pyridin-2-yl)ethyl)-3-((S)-1,1,1-trifluoro-3,3-dimethylbutan-2-yl)urea]
